Read-outs that look alike come from different tables or passages of the source.
Legend:
[1] = biological target: T1, Human D2R (Homo sapiens, UniProt P14416); assay: Human D2R functional cAMP assay (HTRF, CHO-D2 #S20 cells, forskolin); assay type: cell-based; conditions: for functional character at D2R: cAMP assay; for Emax: read-out: Emax (maximal effect)
T1 construct: expressed in transfected cells
Experimental: Human D2R activity was measured by determining the amount of cAMP produced. Human D2R functional experiments were carried out in a CHO-D2 #S20 cell line. Five-thousand cells were seeded in 30 μl of Optimem (Invitrogen 11058) + 500 μM IBMX (Sigma 17018) on a 96-well black-and-white isoplate (PerkinElmer 6005030). Test compounds and dopamine were added in their corresponding wells and incubated for 10 min at 37 °C with gentle stirring (150 r.p.m.). Then, 10 µM forskolin (Sigma 17018) was added and incubated for 5 min at 37 °C with gentle stirring (150 r.p.m.). Reagents from the kit (#CISBIO 62AM4PEC) were added and incubated for 1 h at room temperature with gentle stirring (90 r.p.m.) and protected from light. HTRF (excitation wavelength: 320 nm; emission wavelengths: 620–665 nm) from each well was measured using a Tecan Infinite M1000 Pro. Two independent experiments were carried out to calculate EC50 and Emax values.

[2] = biological target: T1, Human D2R; assay: Human D2R competition radioligand binding ([3H]-spiperone, CHO-D2R #S20 membranes); conditions: for D2R radioligand displacement at 10 µM (%) / inhibition at 10 µM: 10 µM compound, mean ± SEM of two technical replicates; for inhibition at 10 µM: 2 h, read-out: D2R radioligand displacement at 10 µM (%); for Ki: mean ± SEM from three independent experiments
Experimental: (§1) Screening compounds (Supplementary Tables 10 and 12) were purchased from Enamine (compound purity >90%, which was confirmed by liquid chromatography−mass spectrometry and ^1H NMR spectroscopy for identified ligands; Supplementary Figs. 19–30). Human D2R competition binding experiments were carried out in polypropylene 96-well plates. Each well contained 20 µg of membranes from a CHO-D2R #S20 cell line (protein concentration of 4,322 µg ml^−1), 1.5 nM [^3H]-spiperone (54.3 Ci mmol^−1, 1 mCi ml^−1, PerkinElmer NET1187250UC) and the compound studied. Non-specific binding was determined in the presence of 10 µM sulpiride (Sigma Aldrich S8010). The reaction mixture (250 µl per well) was incubated at 25 °C for 120 min, after which 200 µl was transferred to a GF/C 96-well plate (Millipore) pretreated with 0.5% PEI and treated with binding buffer (50 mM Tris-HCl, 1 mM EDTA, 5 mM MgCl2, 5 mM KCl, 120 mM NaCl, pH 7.4). The reaction mixture was filtered and washed 4 times with 250 µl wash buffer (50 mM Tris-HCl, 0.9% NaCl, pH 7.4) before the addition of 30 μl Universol. The final measurement was performed in a microplate beta scintillation counter (Microbeta Trilux, PerkinElmer). Human A2AR competition binding experiments were carried out in a multiscreen GF/C 96-well plate (Millipore) pretreated with binding buffer (Tris-HCl 50 mM, EDTA 1 mM, MgCl2 10 mM, 2 U ml^−1 adenosine deaminase, pH 7.4). Each well was incubated with 5 μg of membranes from the HeLa-A2A cell line and prepared in our laboratory (lot A003/14-04-2019, protein concentration 2,058 μg ml^−1), 1 nM [^3H]-ZM241385 (50 Ci mmol^−1, 1 mCi ml^−1, ARC-ITISA 0884), and the compounds studied and standards. Non-specific binding was determined in the presence of NECA 50 μM (Sigma E2387). The reaction mixture (total volume of 200 μl per well) was incubated at 25 °C for 30 min, then filtered and washed 4 times with 250 μl wash buffer (Tris-HCl 50 mM, EDTA 1 mM, MgCl2 10 mM, pH 7.4), and measured in a microplate beta scintillation counter (Microbeta Trilux, PerkinElmer). Unless stated otherwise, three independent experiments were carried out to calculate Ki values.

[3] = biological target: T2, Human A2AR (Homo sapiens, UniProt P29274); assay: Human A2AR competition radioligand binding ([3H]-ZM241385, HeLa-A2A membranes); conditions: for A2AR radioligand displacement at 20 µM (%): 20 µM compound, mean ± SEM of two technical replicates
T2 construct: expressed in transfected cells; host or cells: HeLa-A2A cell line (membranes prepared in house, lot A003/14-04-2019)
T2 sequence (P29274 whole entry): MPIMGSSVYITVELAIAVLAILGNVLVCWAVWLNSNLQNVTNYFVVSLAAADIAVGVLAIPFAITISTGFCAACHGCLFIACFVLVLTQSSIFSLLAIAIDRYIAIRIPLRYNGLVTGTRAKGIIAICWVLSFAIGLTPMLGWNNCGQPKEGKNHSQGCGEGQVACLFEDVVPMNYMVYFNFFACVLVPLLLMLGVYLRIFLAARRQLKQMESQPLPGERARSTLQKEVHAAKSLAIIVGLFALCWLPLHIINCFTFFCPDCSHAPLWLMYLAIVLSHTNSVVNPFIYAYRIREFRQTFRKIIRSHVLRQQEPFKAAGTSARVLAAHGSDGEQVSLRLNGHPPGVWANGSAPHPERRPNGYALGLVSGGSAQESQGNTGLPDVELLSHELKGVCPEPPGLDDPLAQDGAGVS
Experimental: as §1

T1 sequence (P14416 whole entry): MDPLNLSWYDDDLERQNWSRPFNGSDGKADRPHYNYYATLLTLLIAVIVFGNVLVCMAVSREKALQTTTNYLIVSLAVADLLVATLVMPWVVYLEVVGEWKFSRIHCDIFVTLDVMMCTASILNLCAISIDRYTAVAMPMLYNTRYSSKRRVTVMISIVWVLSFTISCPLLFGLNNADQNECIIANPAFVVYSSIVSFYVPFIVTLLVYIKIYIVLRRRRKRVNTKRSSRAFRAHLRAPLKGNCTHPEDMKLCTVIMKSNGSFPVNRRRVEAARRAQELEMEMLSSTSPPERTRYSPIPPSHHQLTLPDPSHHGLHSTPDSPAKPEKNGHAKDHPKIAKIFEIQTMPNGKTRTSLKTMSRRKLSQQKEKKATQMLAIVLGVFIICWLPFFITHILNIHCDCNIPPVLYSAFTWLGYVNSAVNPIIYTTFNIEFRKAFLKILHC

Row | Structure (SMILES) | A2AR radioligand displacement at 20 µM (%) [3] | also measured
1 | Fc1ccc(-n2ccc(CCNC3Cc4ccccc4C3)n2)cc1 [Compound 1, c1ccc2c(c1)CC(C2)NCCc3ccn(n3)c4ccc(cc4)F] | – | EC50 ([1]; CHO-D2 #S20 cells, two independent experiments, read-out: EC50 (D2R-mediated changes in intracellular cAMP)): 10 µM; functional character at D2R [1]: full agonists; Emax [1]: 99%; D2R radioligand displacement at 10 µM (%) ([2]; listed as Z1441695252): 59 ± 1%; inhibition at 10 µM [2]: 59 ± 1%; Ki [2]: 3 µM
2 | Cc1cnccc1CCN1CCC(Oc2ccccc2Cl)C1 (centres unmarked) [Compound 2, Cc1cnccc1CCN2CCC(C2)Oc3ccccc3Cl] | – | EC50 [1]: 14 µM; functional character at D2R [1]: full agonists; Emax [1]: 100%; D2R radioligand displacement at 10 µM (%) ([2]; listed as Z2436421891): 56 ± 2%; inhibition at 10 µM [2]: 56 ± 2%; Ki [2]: 3.8 µM
3 | NC(=NCCc1c[nH]c2c(Cl)cc(Cl)cc12)Nc1ncccn1 [Compound 5, c1cnc(nc1)NC(=NCCc2c[nH]c3c2cc(cc3Cl)Cl)N] | – | Ki ([3]; fit to concentration-response curve from two technical replicates, compound 5 three independent experiments (mean ± SEM), read-out: Ki (A2AR)): ~20 µM; Ki [2]: 14 µM
4 | NC(Cc1ccccc1Cl)C(=O)N1CC(C(=O)Nc2nccs2)C1 (centres unmarked) [Z6437654059, c1ccc(c(c1)CC(C(=O)N2CC(C2)C(=O)Nc3nccs3)N)Cl] | 3±2% | –
5 | O=C(CN1CCC1Cc1ccccc1)Nc1ncc[nH]1 (centres unmarked) [Z6743522026, c1ccc(cc1)CC2CCN2CC(=O)Nc3[nH]ccn3] | 5±3% | –
6 | CC(Cc1c[nH]c2ncccc12)NCc1nn(C)c2ccccc12 (centres unmarked) [Z7272600070, CC(Cc1c[nH]c2c1cccn2)NCc3c4ccccc4n(n3)C] | 20±1% | –
7 | COc1cc(CNC(C)Cc2c[nH]c3ncccc23)ncc1C (centres unmarked) [Z7326877935, Cc1cnc(cc1OC)CNC(C)Cc2c[nH]c3c2cccn3] | 13±2% | –
8 | Cc1ccc(NCCNC(=O)C2Cc3c(C)cccc3CN2)nc1 (centres unmarked) [Z8854579335, Cc1ccc(nc1)NCCNC(=O)C2Cc3c(cccc3CN2)C] | 6±2% | –
9 | COc1ccc(Cl)c(CCN=C(N)Nc2ncccn2)c1 [Z8854579336, COc1ccc(c(c1)CCN=C(N)Nc2ncccn2)Cl] | 39±1% | –
10 | NC(=NCCc1ccccc1Cl)Nc1ncccn1 [Z8854579337, c1ccc(c(c1)CCN=C(N)Nc2ncccn2)Cl] | 29±4% | –
11 | N[C@@H](CC(=O)Nc1nc2c(Br)cc(F)cc2[nH]1)Cc1ccccc1 [Z8854579338, c1ccc(cc1)C[C@H](CC(=O)Nc2[nH]c3cc(cc(c3n2)Br)F)N] | 49±2% | –
12 | NC(CC(=O)Nc1cc2ncccn2n1)C(=O)OCc1ccccc1 (centres unmarked) [Z8854579341, c1ccc(cc1)COC(=O)C(CC(=O)Nc2cc3ncccn3n2)N] | 2±2% | –
13 | N[C@H]1c2ccccc2C[C@H]1C(=O)Nc1ccn(-c2ccccn2)n1 [Z8854579342, c1ccc2c(c1)C[C@H]([C@H]2N)C(=O)Nc3ccn(n3)c4ccccn4] | 30±2% | –
14 | NC(=NCCOc1ccc(F)cc1)Nc1ncccn1 [Z8854579344, c1cnc(nc1)NC(=NCCOc2ccc(cc2)F)N] | 17±1% | –
15 | NC(=NCc1cc2ccccc2o1)Nc1ncccn1 [Z8854579345, c1ccc2c(c1)cc(o2)CN=C(N)Nc3ncccn3] | 32±2% | –
16 | Cc1ccc(C[C@H](N)CC(=O)Nc2nc3c(C)cccc3[nH]2)cc1 [Z8854579350, Cc1ccc(cc1)C[C@@H](CC(=O)Nc2[nH]c3cccc(c3n2)C)N] | 30±3% | –
17 | CSc1ccc(CCN=C(N)Nc2ncccn2)cc1 [Z8854579356, CSc1ccc(cc1)CCN=C(N)Nc2ncccn2] | 15±1% | –

Second part, led by results:

Row | A2AR radioligand displacement at 20 µM (%) [3] | Structure (SMILES) | also measured
18 | 23±1% | NC(=NCCOc1cccc(C(F)(F)F)c1)Nc1ncccn1 [Z8854579346, c1cc(cc(c1)OCCN=C(N)Nc2ncccn2)C(F)(F)F] | –
19 | 32±4% | NC(=NCc1ccsc1-n1cccc1)Nc1ncccn1 [Z8854579347, c1ccn(c1)c2c(ccs2)CN=C(N)Nc3ncccn3] | –
20 | 31±1% | Cc1cccc2[nH]c(NC(=O)C(N)Cc3csc4ccccc34)nc12 (centres unmarked) [Z8854579351, Cc1cccc2c1nc([nH]2)NC(=O)C(Cc3csc4c3cccc4)N] | –
21 | 57±4% | Cc1cccc2[nH]c(NC(=O)C(N)Cc3cccc(Cl)c3)nc12 (centres unmarked) [Z8854579352, Cc1cccc2c1nc([nH]2)NC(=O)C(Cc3cccc(c3)Cl)N] | –
22 | 22±5% | NC(=NCCc1ccccc1OC(F)(F)F)Nc1ncccn1 [Z8854579353, c1ccc(c(c1)CCN=C(N)Nc2ncccn2)OC(F)(F)F] | –
23 | 1±1% | Cc1cccc2c1CC(C(=O)NCCNc1ncccn1)NC2 (centres unmarked) [Z8854579354, Cc1cccc2c1CC(NC2)C(=O)NCCNc3ncccn3] | –
24 | 28±1% | NC(=NCCc1cccc(Br)c1)Nc1ncccn1 [Z8854579355, c1cc(cc(c1)Br)CCN=C(N)Nc2ncccn2] | –
25 | 16±4% | NC(=NCCc1c(F)cccc1Cl)Nc1ncccn1 [Z8854579358, c1cc(c(c(c1)Cl)CCN=C(N)Nc2ncccn2)F] | –
26 | 26±3% | NC(=NCCOc1ccc(F)c(Cl)c1)Nc1ncccn1 [Z8854579360, c1cnc(nc1)NC(=NCCOc2ccc(c(c2)Cl)F)N] | –
27 | 12±4% | COc1ccc(CCN=C(N)Nc2ncccn2)c(F)c1 [Z8854579362, COc1ccc(c(c1)F)CCN=C(N)Nc2ncccn2] | –
28 | 20±1% | NC(=NCCc1c(F)cccc1Br)Nc1ncccn1 [Z8854579363, c1cc(c(c(c1)Br)CCN=C(N)Nc2ncccn2)F] | –
29 | 17±4% | NC(=NCCCc1ccc(F)cc1)Nc1ncccn1 [Z8854579364, c1cnc(nc1)NC(=NCCCc2ccc(cc2)F)N] | –
30 | 15±1% | Cc1ccc(F)c(CCN=C(N)Nc2ncccn2)c1 [Z8854579366, Cc1ccc(c(c1)CCN=C(N)Nc2ncccn2)F] | –
31 | 10±2% | Cn1ccc(NC(=O)CNC(=O)C2Cc3c(Br)cccc3CN2)n1 (centres unmarked) [Z8854579367, Cn1ccc(n1)NC(=O)CNC(=O)C2Cc3c(cccc3Br)CN2] | –
32 | 14±1% | NC(=NCCc1ccc(F)cc1F)Nc1ncccn1 [Z8854579368, c1cnc(nc1)NC(=NCCc2ccc(cc2F)F)N] | –
33 | 2±3% | NC(=NCCOc1ccc(F)cc1F)Nc1ncccn1 [Z8854579369, c1cnc(nc1)NC(=NCCOc2ccc(cc2F)F)N] | –
34 | 11±1% | NC(=NCCc1ccc(F)cc1)Nc1ncccn1 [Z8854579370, c1cnc(nc1)NC(=NCCc2ccc(cc2)F)N] | –
35 | 3±2% | Cc1ccncc1CNC(=O)C(N)Cc1c[nH]c2ncccc12 (centres unmarked) [Z8857701713, Cc1ccncc1CNC(=O)C(Cc2c[nH]c3c2cccn3)N] | –
36 | 32±2% | NC(=NCc1c(Cl)cccc1Cl)Nc1ncccn1 [Z8861112994, c1cc(c(c(c1)Cl)CN=C(N)Nc2ncccn2)Cl] | –

Source: paper PMC12021657, “Rapid traversal of vast chemical space using machine learning-guided docking screens” (Nature Computational Science, 2025)
